Earlier results in US6803034B2, “Compositions and methods for odor and fungal control in ballistic fabric and other protective garments” (Procter & Gamble Company, priority 2000, dated 2004).

solubility in water | Compound
about 1.8% | [H]/N=C(\N/C(=N/[H])NCCCCCCNC(=N)NC(=N)Nc1ccc(Cl)cc1)Nc1ccc(Cl)cc1 [chlorhexidine diacetate, 1,1′-hexamethylene bis(5-(p-chlorophenyl)biguanide)]
about 70% | [H]/N=C(\N/C(=N/[H])NCCCCCCNC(=N)NC(=N)Nc1ccc(Cl)cc1)Nc1ccc(Cl)cc1 [chlorhexidine digluconate, 1,1′-hexamethylene bis(5-(p-chlorophenyl)biguanide)]
